Results as given in PMC11013424, “Evaluation of the Lipophilicity of Angularly Condensed Diquino- and Quinonaphthothiazines as Potential Candidates for New Drugs” (Molecules, 2024).

Legend:
[1] = parameters: method as in doi:10.1016/j.molstruc.2023.135700, PMID 30981160, doi:10.1016/j.molstruc.2015.06.046, PMID 25750501, doi:10.1016/j.molstruc.2023.136856; conditions: cited from earlier work
[2] = system: IFNβ expression and IFNβ-dependent downstream genes and proteins; parameters: method as in doi:10.1016/j.molstruc.2023.135700, PMID 30981160, doi:10.1016/j.molstruc.2015.06.046, PMID 25750501, doi:10.1016/j.molstruc.2023.136856; conditions: cited from earlier work
[3] = RP-TLC determination of lipophilicity (RM0, logPTLC); conditions: for RM0: RP-18 plate, acetone/TRIS buffer pH 7.4, extrapolated to zero acetone; for b (slope) / -b: slope of RM = RM0 + b·C; for b (slope): acetone/TRIS buffer pH 7.4; for LogPTLC: from RM0 by calibration logPTLC = 1.2838 RM0 + 0.2138; for -b: standards I–V;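 on all read-outs here: silica gel 60 RP-18 F254S plates, TRIS buffer of ionic strength 0.2 M, detection under UV at 254 nm, RF averaged over three or more runs, C in % v/v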
Procedure: RP-TLC was carried out on a silica gel 60 RP-18 F254S 10 cm × 10 cm RP-TLC plate (Merck, Darmstad, Germany). The mobile phase was acetone and an aqueous TRIS (tris(hydroxymethyl)-aminomethane) buffer pH = 7.4 (ionic strength 0.2 M) to meet physiological conditions. […] Angularly condensed diquino- and quinonaphthothiazinethiazines (1–21) and the standards I–V were dissolved in ethanol (2.0 mg/mL). […] Before developing the plates, the chromatographic chambers were saturated with the mobile phase for 0.5 h. After developing the plates and drying in a stream of air, the chromatograms were observed under UV light at λ = 254 nm. At least, three chromatograms were developed for each soluble–solvent combination, and the RF values were averaged. […] The RM0 values were obtained by extrapolation to a zero acetone concentration using the equation RM = RM0 + bC, where C is the concentration (%, v/v) of acetone in the mobile phase.

[4] = system: alpha-glucosidase; parameters: method as in doi:10.1016/j.molstruc.2023.136856; conditions: cited from earlier work
[5] = system: alpha-amylase; parameters: method as in doi:10.1016/j.molstruc.2023.136856; conditions: cited from earlier work
[6] = parameters: method as in doi:10.1016/j.molstruc.2023.136856; conditions: cited from earlier work
[7] = parameters: method as in doi:10.1016/j.molstruc.2023.136856; conditions: cited from earlier work; remark: listed apart in the source
[8] = parameters: method as in doi:10.1016/j.molstruc.2023.136856; conditions: cited from earlier work; remark: listed apart in the source

| Compound | RM0 [3] | b (slope) [3] | other results |
| --- | --- | --- | --- |
| 6-chloro-ethylureidoethyldiquinothiazine |  |  | activity in in vivo models [1]: suppressive and anti-inflammatory activities; inhibition of IFNβ expression and IFNβ-dependent downstream genes and proteins [2]: inhibitory activity |
| c1ccc2nc3c(cc2c1)Sc1c(cnc2ccccc12)N3 [Compound 1, 7H-diquino[3,2-b;3′,4′-e]thiazine] | 3.15 | −0.0383 | alpha-glucosidase activity inhibition [4]: inhibited; alpha-amylase activity inhibition [5]: inhibited; lipid peroxidation effect [6]: strong; ion chelating effect [7]: strong; free radical scavenging effect [8]: strong |
| CN1c2cnc3ccccc3c2Sc2cc3ccccc3nc21 [Compound 2] | 4.14 | −0.0503 |  |
| C=CCN1c2cnc3ccccc3c2Sc2cc3ccccc3nc21 [Compound 3] | 4.30 | −0.058 |  |
| C#CCN1c2cnc3ccccc3c2Sc2cc3ccccc3nc21 [Compound 4] | 3.35 | −0.0383 |  |
| c1ccc2nc3c(cc2c1)Sc1c(ccc2ncccc12)N3 [Compound 5] | 3.72 | −0.0459 |  |
| CN1c2ccc3ncccc3c2Sc2cc3ccccc3nc21 [Compound 6] | 4.24 | −0.0582 |  |
| C=CCN1c2ccc3ncccc3c2Sc2cc3ccccc3nc21 [Compound 7] | 4.46 | −0.0534 |  |
| C#CCN1c2ccc3ncccc3c2Sc2cc3ccccc3nc21 [Compound 8] | 3.96 | −0.0539 | LogPTLC [3]: 5.34 |
| c1ccc2nc3c(cc2c1)Sc1ccc2ncccc2c1N3 [Compound 9] | 3.69 | −0.0498 | alpha-glucosidase activity inhibition [4]: inhibited; alpha-amylase activity inhibition [5]: inhibited; lipid peroxidation effect [6]: strong; ion chelating effect [7]: strong; free radical scavenging effect [8]: strong |
| CN1c2nc3ccccc3cc2Sc2ccc3ncccc3c21 [Compound 10] | 4.37 | −0.0540 |  |
| c1ccc2nc3c(cc2c1)Sc1ccc2cccnc2c1N3 [Compound 11] | 3.48 | −0.0462 | LogPTLC [3]: 4.72; alpha-glucosidase activity inhibition [4]: inhibited; alpha-amylase activity inhibition [5]: inhibited; lipid peroxidation effect [6]: strong; ion chelating effect [7]: strong; free radical scavenging effect [8]: strong |
| CN1c2nc3ccccc3cc2Sc2ccc3cccnc3c21 [Compound 12] | 4.21 | −0.0576 |  |
| C=CCN1c2nc3ccccc3cc2Sc2ccc3cccnc3c21 [Compound 13] |  | −0.0478 |  |
| c1ccc2nc3c(cc2c1)Sc1c(ccc2ccccc12)N3 [Compound 14] | 4.24 | −0.0573 | LogPTLC [3]: 5.69 |
| CN1c2ccc3ccccc3c2Sc2cc3ccccc3nc21 [Compound 15] | 4.49 | −0.0527 |  |
| C#CCN1c2ccc3ccccc3c2Sc2cc3ccccc3nc21 [Compound 17] | 4.29 | −0.0529 | LogPTLC [3]: 5.76 |
| c1ccc2nc3c(cc2c1)Sc1ccc2ccccc2c1N3 [Compound 18] | 3.81 | −0.0484 |  |
| CN1c2nc3ccccc3cc2Sc2ccc3ccccc3c21 [Compound 19] | 4.18 | −0.0538 | LogPTLC [3]: 5.58 |
| C=CCN1c2nc3ccccc3cc2Sc2ccc3ccccc3c21 [Compound 20, 14-allylquinonaphthothiazine] | 4.34 | −0.0548 |  |
| C#CCN1c2nc3ccccc3cc2Sc2ccc3ccccc3c21 [Compound 21] | 4.09 | −0.0507 |  |
| CC(=O)Nc1ccccc1 [Standard I, acetanilide, reference compound] | 0.78 |  | LogPTLC [3]: 1.21; -b [3]: 0.0162 |
| O=C(O)c1ccccc1 [Standard II, benzoic acid, reference compound] | 1.16 |  | -b [3]: 0.0247 |
| Clc1ccc(C(c2ccc(Cl)cc2)C(Cl)(Cl)Cl)cc1 [Standard V, p,p’-DDT, reference compound] | 4.69 |  | LogPTLC [3]: 6.24; -b [3]: 0.0564 |
